Measured values reported in patent US5877165A, “Boronated porhyrins and methods for their use” (priority 1997, dated 1999).
“Also recorded” adds a separate entry of the source.

Tests used:
[1] = Hematological, enzymatic and chemical blood analyses and weight change, mice with KHJJ mammary carcinomas (Examples 4-7, Table 1); type: in vivo, BALB/c mice; conditions: NiTCP 160 or BPA 900 μg/gbw; 6-78 hr
Method: (§1) Female BALB/c mice (Taconic Farms, Germantown, N.Y.) (20-25 g) were implanted with either KHJJ or EMT-6 tumors. For KHJJ tumors, 1-3 mm^3 tumor fragments were implanted subcutaneously (s.c.) in the dorsal thorax of each mouse using an 18-gauge trocar. For EMT-6 tumors, 2.5×10^5 cells were implanted similarly using a 27-gauge needle. EMT-6 tumor cells were grown alternately in vivo and in vitro. Single-cell suspensions were prepared from mouse-grown tumors by trypsinization. These were grown in cell culture for several passages and then were frozen in 10% DMSO and stored in liquid nitrogen. Prior to implantation in mice, the cells were thawed and grown in tissue culture in Alpha-MEM with 10% FBS for several passages. […]
(§2) Levels of glucose [GLU], blood urea nitrogen [BUN], blood creatinine [BCR], alanine transaminase [ALT], aspartate transaminase [AST], alkaline phosphatase [ALP], total protein [TPR], albumin [ALB], and creatine phosphokinase [CPK] were determined in blood plasma using a Cobas Fara II microanalysis system. Blood platelets [PLT] and white blood cells [WBC] were counted using a Serono-Baker System 9000 automated hematology microanalyzer. […]

[2] = Hematological, enzymatic and chemical blood analyses and weight change, mice with KHJJ mammary carcinomas (Examples 8-12, Table 2); type: in vivo, BALB/c mice; conditions: 244 μg/gbw; 17 hr to 4 d
Method: as §1, §2

KHJJ mammary carcinomas = experiment: Boron biodistribution, mice with KHJJ mammary carcinomas (Examples 8-12, Table 2); set-up: species or system BALB/c mice; conditions: mouse, in vivo
Method: Female BALB/c mice (Taconic Farms, Germantown, N.Y.) (20-25 g) were implanted with either KHJJ or EMT-6 tumors. For KHJJ tumors, 1-3 mm^3 tumor fragments were implanted subcutaneously (s.c.) in the dorsal thorax of each mouse using an 18-gauge trocar. For EMT-6 tumors, 2.5×10^5 cells were implanted similarly using a 27-gauge needle. EMT-6 tumor cells were grown alternately in vivo and in vitro. Single-cell suspensions were prepared from mouse-grown tumors by trypsinization. These were grown in cell culture for several passages and then were frozen in 10% DMSO and stored in liquid nitrogen. Prior to implantation in mice, the cells were thawed and grown in tissue culture in Alpha-MEM with 10% FBS for several passages.
Under deep halothane anesthesia leading to euthanasia, right ventricular blood was collected in Microtainer (Becton-Dickinson, Rutherford, N.J.) tubes containing EDTA for hematological analyses and boron assays of whole blood and in Microtainer™ tubes containing lithium heparin for chemical analyses and enzyme assays of blood plasma. Tumor, brain, fat, muscle, and liver tissues were sampled at necropsy for boron analyses.
Direct current plasma-atomic emission spectroscopy [DCP-AES] (ARL/Fisons Model SS-7) was used (detection limit: 0.1 μg/ml). Samples (50-130 mg) were digested at 60° C. with sulfuric acid:nitric acid (1:1). […]

[3] = Overall ranking of boronated porphyrins for BNCT guided by biodistribution and toxicity tests in mice (Table 11)
Method: The higher the numerical value, the better the performance of that porphyrin for that property. […] Although VCDP was able to deliver therapeutic amounts of boron to tumor, such side effects such as thrombocytopenia, which was induced within 3 hours after injections, weight loss, and the altered hepatic enzymes were serious enough to rank VCDP considerably behind the TCP's and the TCP-H's (Miura et al., 1992). In addition, the 80-hour drug administration period and the 90-hour blood clearance period are of great inconvenience. Moreover, this 4-day difference between the VCDP and the TCP (or TCP-H) dose and clearance schedules would translate into a 4-day greater delay between initiation of drug administration and neutron irradiation which would allow greater tumor growth to occur.
[…]
biodistribution and toxicity tests in mice. An asterisk indicates

[4] = total doses up to 272 μg/gbw, n>80 mice (Miura et al., 1996); cited from earlier work

Nickel Tetracarboranylphenylporphyrin [NiTCP]
toxicity, in words [1]: some minor, evidently transient, weight loss was noted six hours after the last NiTCP injection; also recorded: The BUN levels in mice given NiTCP at all three time points were higher than those in mice given BPA; also recorded: The ALP and ALT were somewhat depressed 78 hours after injections | toxicity, in words [2]: non-toxic; also recorded: only slight differences in the results of blood chemical analyses between the NiTCP groups and the solvent-only control groups; also recorded: Weight loss was only observed 17 hours after the last injection of NiTCP | retention of boron in tumor, in words (KHJJ mammary carcinomas): the ability to retain the therapeutic amounts of boron in the tumor for several days | time before average blood boron concentration falls below 1 ppm (KHJJ mammary carcinomas): 4 days | Drug tolerance/deliverable boron (ranking) [3]: 4 | Lipophilicity (ranking) [3]: 2 | Tumor uptake (normalized) (ranking) [3]: 3 | Tumor:Blood (ranking) [3]: 3 | toxicity, in words (general) ([3]; in vivo, at (potentially) therapeutic doses): substantially less toxic | mortality and toxicity, in words [4]: no mortality (n>80) nor any substantial toxicity
